Each structure is given as a SMILES string. In brackets after ≈: the same amount, converted by molar mass.

Holding throughout (assay): Bacterial growth minimal inhibitory concentration (microdilution, cation-adjusted Mueller-Hinton Broth)
Holding throughout (assay type): cell-based

In assay [1] the test system is E. coli ATCC25922. The note with it: Escherichia coli, ATCC25922; quinolone-sensitive strain. The procedure:
(§1) Minimal Inhibitory Concentrations (MICs; mg/L) were determined in cation-adjusted Mueller-Hinton Broth by a microdilution method following the description given in “Methods for Dilution Antimicrobial Susceptibility Tests for Bacteria that grow Aerobically”, Approved standard, 7th ed., Clinical and Laboratory Standards Institute (CLSI) Document M7-A7, Wayne, Pa., USA (2006).
(§2) All Example compounds were tested against several Gram-positive and Gram-negative bacteria. […] K. pneumoniae A-651 is a multiply-resistant strain (in particular quinolone-resistant), while E. coli ATCC25922 and P. aeruginosa ATCC27853 are quinolone-sensitive strains.

For assay [2], the system named is P. aeruginosa ATCC27853. As to conditions: Pseudomonas aeruginosa, ATCC27853; quinolone-sensitive strain. The procedure: as §1, §2
The subject of assay [3] is K. pneumoniae A-651. The note with it: Klebsiella pneumoniae, A651; multiply-resistant strain (in particular quinolone-resistant). On the procedure:
as §1, §2

Regarding `CC(C)(CO)c1ccc(C#Cc2cc3c(s2)C(=O)N(CCC(C)(C(=O)NO)S(C)(=O)=O)C3)cc1` (racemic) [Reference Example 1, (2RS)—N-hydroxy-4-(2-((4-(1-hydroxy-2-methylpropan-2-yl)phenyl)ethynyl)-6-oxo-4,6-dihydro-5H-thieno[2,3-c]pyrrol-5-yl)-2-methyl-2-(methylsulfonyl)butanamide], the figures for the MIC in assay [1], in assay [2] and in assay [3] were 0.25 µg/mL (≈ 0.495 µM), 2 µg/mL (≈ 3.96 µM) and 1 µg/mL (≈ 1.98 µM), respectively.

`CC(CCN1Cc2cc(C#CC#CC3(CO)CC3)sc2C1=O)(C(=O)NO)S(C)(=O)=O` (racemic) [Reference Example 2, (2RS)—N-hydroxy-4-(2-((1-(hydroxymethyl)cyclopropyl)buta-1,3-diyn-1-yl)-6-oxo-4,6-dihydro-5H-thieno[2,3-c]pyrrol-5-yl)-2-methyl-2-(methylsulfonyl)butanamide]: the results for the MIC in assay [1], in assay [2] and in assay [3] were 1 µg/mL (≈ 2.22 µM), 2 µg/mL (≈ 4.44 µM) and 2 µg/mL (≈ 4.44 µM), respectively.

For `C[C@@](CCN1Cc2cc(C#CC#C[C@@H]3C[C@H]3CO)sc2C1=O)(C(=O)NO)S(C)(=O)=O` (single isomer, unassigned) [Example 1], the results for the minimal inhibitory concentration (MIC) in assay [1], in assay [2] and in assay [3] were 0.125 µg/mL (≈ 0.277 µM), 0.5 µg/mL (≈ 1.11 µM) and 0.25 µg/mL (≈ 0.555 µM), respectively.

As for `C[C@@](CCN1Cc2cc(C#CC#CC3CN([C@@H]4CCOC4)C3)sc2C1=O)(C(=O)NO)S(C)(=O)=O` (single isomer, unassigned) [Example 37], the figures for the MIC in assay [1], in assay [2] and in assay [3] were 0.5 µg/mL (≈ 0.989 µM), 1 µg/mL (≈ 1.98 µM) and 0.5 µg/mL (≈ 0.989 µM), respectively.

As to `C[C@@](CCN1Cc2cc(C#CC#CC3CN([C@H]4CCOC4)C3)sc2C1=O)(C(=O)NO)S(C)(=O)=O` (single isomer, unassigned) [Example 38], the values for the MIC in assay [1], in assay [2] and in assay [3] were 0.25 µg/mL (≈ 0.494 µM), 1 µg/mL (≈ 1.98 µM) and 0.25 µg/mL (≈ 0.494 µM), respectively.

As to `COc1ccc(-c2cc3c(s2)C(=O)N(CC[C@](C)(C(=O)NO)S(C)(=O)=O)C3)c(F)c1` [Example 2, (2R)-4-(2-(2-fluoro-4-methoxyphenyl)-6-oxo-4,6-dihydro-5H-thieno[2,3-c]pyrrol-5-yl)-N-hydroxy-2-methyl-2-(methylsulfonyl)butanamide], the MIC (commonly the smallest concentration in the dilution series that meets the test's criterion for growth inhibition) was at most 0.063 µg/mL in assay [1], 2 µg/mL (≈ 4.38 µM) in assay [2] and 0.25 µg/mL (≈ 0.548 µM) in assay [3].

On to `C[C@@](CCN1Cc2cc(C#CC#CC3(N)CC3)sc2C1=O)(C(=O)NO)S(C)(=O)=O` [Example 3, (2R)-4-(2-((1-aminocyclopropyl)buta-1,3-diyn-1-yl)-6-oxo-4,6-dihydro-5H-thieno[2,3-c]pyrrol-5-yl)-N-hydroxy-2-methyl-2-(methylsulfonyl)butanamide], for which the MIC in assay [1] was 0.25 µg/mL (≈ 0.574 µM); in assay [2], 1 µg/mL (≈ 2.3 µM); in assay [3], 0.5 µg/mL (≈ 1.15 µM).

With `CNC1(C#CC#Cc2cc3c(s2)C(=O)N(CC[C@](C)(C(=O)NO)S(C)(=O)=O)C3)CC1` [Example 5, (2R)—N-hydroxy-2-methyl-4-(2-((1-(methylamino)cyclopropyl)buta-1,3-diyn-1-yl)-6-oxo-4,6-dihydro-5H-thieno[2,3-c]pyrrol-5-yl)-2-(methylsulfonyl)butanamide], the minimum inhibitory concentration (MIC) in assay [1] worked out at 0.125 µg/mL (≈ 0.278 µM); in assay [2], 1 µg/mL (≈ 2.22 µM); in assay [3], 0.25 µg/mL (≈ 0.556 µM).

`C[C@@](CCN1Cc2cc(C#CC#CCOC(=O)N3CC(O)C3)sc2C1=O)(C(=O)NO)S(C)(=O)=O` [Example 6, (3R)-5-(5-(4-(hydroxyamino)-3-methyl-3-(methylsulfonyl)-4-oxobutyl)-6-oxo-5,6-dihydro-4H-thieno[2,3-c]pyrrol-2-yl)penta-2,4-diyn-1-yl 3-hydroxyazetidine-1-carboxylate]: the MIC in assay [1] was 1 µg/mL (≈ 1.96 µM); in assay [2], 2 µg/mL (≈ 3.92 µM); in assay [3], 1 µg/mL (≈ 1.96 µM).

Regarding `CNC1(C#CC#Cc2ccc3c(c2)CN(CC[C@](C)(C(=O)NO)S(C)(=O)=O)C3=O)CC1` [Example 7, (2R)—N-hydroxy-2-methyl-4-(5-((1-(methylamino)cyclopropyl)buta-1,3-diyn-1-yl)-1-oxoisoindolin-2-yl)-2-(methylsulfonyl)butanamide], the MIC in assay [1] was determined as 0.25 µg/mL (≈ 0.564 µM); in assay [2], 2 µg/mL (≈ 4.51 µM); in assay [3], 1 µg/mL (≈ 2.25 µM).

Turning to `CN1CC(C#CC#Cc2ccc3c(c2)CN(CC[C@](C)(C(=O)NO)S(C)(=O)=O)C3=O)C1` [Example 8, (2R)—N-hydroxy-2-methyl-4-(5-((1-methylazetidin-3-yl)buta-1,3-diyn-1-yl)-1-oxoisoindolin-2-yl)-2-(methylsulfonyl)butanamide], the figures for the MIC in assay [1], in assay [2] and in assay [3] were 1 µg/mL (≈ 2.25 µM), 1 µg/mL (≈ 2.25 µM) and 2 µg/mL (≈ 4.51 µM), respectively.

As for `C[C@@](CCN1Cc2cc(C#CC#CCOC(=O)N3CC(O)C3)ccc2C1=O)(C(=O)NO)S(C)(=O)=O` [Example 9, (3R)-5-(2-(4-(hydroxyamino)-3-methyl-3-(methylsulfonyl)-4-oxobutyl)-1-oxoisoindolin-5-yl)penta-2,4-diyn-1-yl 3-hydroxyazetidine-1-carboxylate], the MIC in assay [1] is 1 µg/mL (≈ 1.99 µM); in assay [2], 2 µg/mL (≈ 3.97 µM); in assay [3] it was 1 µg/mL (≈ 1.99 µM).

For the compound `COc1ccc(-c2ccc3c(c2)CN(CC[C@](C)(C(=O)NO)S(C)(=O)=O)C3=O)c(F)c1` [Example 10, (2R)-4-(5-(2-fluoro-4-methoxyphenyl)-1-oxoisoindolin-2-yl)-N-hydroxy-2-methyl-2-(methylsulfonyl)butanamide], the MIC in assay [1] amounted to 0.125 µg/mL (≈ 0.277 µM); in assay [2] it was 8 µg/mL (≈ 17.8 µM); in assay [3], 0.063 µg/mL (≈ 0.14 µM).

Take `CN1CC(C#CC#Cc2cc3c(s2)C(=O)N(CC[C@](C)(C(=O)NO)S(C)(=O)=O)C3)C1` [Example 11, (2R)—N-hydroxy-2-methyl-4-(2-((1-methylazetidin-3-yl)buta-1,3-diyn-1-yl)-6-oxo-4,6-dihydro-5H-thieno[2,3-c]pyrrol-5-yl)-2-(methylsulfonyl)butanamide]: the MIC in assay [1] amounted to 0.25 µg/mL (≈ 0.556 µM); in assay [2], 0.5 µg/mL (≈ 1.11 µM); in assay [3], 1 µg/mL (≈ 2.22 µM).

For the compound `C[C@@](CCN1Cc2cc(C#CC#CC3(CO)CC3)ccc2C1=O)(C(=O)NO)S(C)(=O)=O` [Example 12, (2R)—N-hydroxy-4-(5-((1-(hydroxymethyl)cyclopropyl)buta-1,3-diyn-1-yl)-1-oxoisoindolin-2-yl)-2-methyl-2-(methylsulfonyl)butanamide], the MIC in assay [1] came to 0.031 µg/mL (≈ 0.0697 µM); in assay [2], 2 µg/mL (≈ 4.5 µM); in assay [3] it was 0.25 µg/mL (≈ 0.562 µM).

`C[C@@](CCN1Cc2cc(C#CC#CC3(N)CC3)ccc2C1=O)(C(=O)NO)S(C)(=O)=O` [Example 13, (2R)-4-(5-((1-aminocyclopropyl)buta-1,3-diyn-1-yl)-1-oxoisoindolin-2-yl)-N-hydroxy-2-methyl-2-(methylsulfonyl)butanamide]: the MIC stood at 0.5 µg/mL (≈ 1.16 µM) in assay [1], 1 µg/mL (≈ 2.33 µM) in assay [2] and 1 µg/mL (≈ 2.33 µM) in assay [3].

Consider `C[C@@](CCN1Cc2cc(C#Cc3ccc(CN4CC(F)C4)cc3)sc2C1=O)(C(=O)NO)S(C)(=O)=O` [Example 14, (2R)-4-(2-((4-((3-fluoroazetidin-1-yl)methyl)phenyl)ethynyl)-6-oxo-4,6-dihydro-5H-thieno[2,3-c]pyrrol-5-yl)-N-hydroxy-2-methyl-2-(methylsulfonyl)butanamide], for which the MIC in assay [1] is 0.031 µg/mL (≈ 0.0597 µM); in assay [2] it was 2 µg/mL (≈ 3.85 µM); in assay [3], 0.25 µg/mL (≈ 0.481 µM).

Regarding `C[C@@](CCN1Cc2cc(C#CC#CC3CN(C4COC4)C3)sc2C1=O)(C(=O)NO)S(C)(=O)=O` [Example 15, (2R)—N-hydroxy-2-methyl-2-(methylsulfonyl)-4-(2-((1-(oxetan-3-yl)azetidin-3-yl)buta-1,3-diyn-1-yl)-6-oxo-4,6-dihydro-5H-thieno[2,3-c]pyrrol-5-yl)butanamide], the figures for the MIC in assay [1], in assay [2] and in assay [3] were 0.5 µg/mL (≈ 1.02 µM), 4 µg/mL (≈ 8.14 µM) and 4 µg/mL (≈ 8.14 µM), respectively.

For `C[C@@](CCN1Cc2cc(C#CC#CC3CN(CCO)C3)sc2C1=O)(C(=O)NO)S(C)(=O)=O` [Example 17, (2R)—N-hydroxy-4-(2-((1-(2-hydroxyethyl)azetidin-3-yl)buta-1,3-diyn-1-yl)-6-oxo-4,6-dihydro-5H-thieno[2,3-c]pyrrol-5-yl)-2-methyl-2-(methylsulfonyl)butanamide], the MIC in assay [1] turned out to be 0.5 µg/mL (≈ 1.04 µM); in assay [2], 1 µg/mL (≈ 2.09 µM); in assay [3] it was 2 µg/mL (≈ 4.17 µM).

For the compound `C[C@@](CCN1Cc2cc(C#CC#C[C@H]3C[C@]3(F)CO)ccc2C1=O)(C(=O)NO)S(C)(=O)=O` [Example 18, (2R)-4-(5-(((1R,2R)-2-fluoro-2-(hydroxymethyl)cyclopropyl)buta-1,3-diyn-1-yl)-1-oxoisoindolin-2-yl)-N-hydroxy-2-methyl-2-(methylsulfonyl)butanamide], the MIC in assay [1] was 0.5 µg/mL (≈ 1.08 µM); in assay [2], 1 µg/mL (≈ 2.16 µM); in assay [3], 2 µg/mL (≈ 4.32 µM).

For `C[C@@](CCN1Cc2cc(C#CC#C[C@H]3C[C@@H]3CO)sc2C1=O)(C(=O)NO)S(C)(=O)=O` [Example 19, (2R)—N-hydroxy-4-(2-(((1S,2S)-2-(hydroxymethyl)cyclopropyl)buta-1,3-diyn-1-yl)-6-oxo-4,6-dihydro-5H-thieno[2,3-c]pyrrol-5-yl)-2-methyl-2-(methylsulfonyl)butanamide], the MIC turned out to be 0.125 µg/mL (≈ 0.277 µM) in assay [1], 0.5 µg/mL (≈ 1.11 µM) in assay [2] and 0.25 µg/mL (≈ 0.555 µM) in assay [3].

For the compound `CN(C)CC(=O)OC[C@H]1C[C@@H]1C#CC#Cc1cc2c(s1)C(=O)N(CC[C@](C)(C(=O)NO)S(C)(=O)=O)C2` [Example 20, ((1S,2S)-2-((5-((3R)-4-(hydroxyamino)-3-methyl-3-(methylsulfonyl)-4-oxobutyl)-6-oxo-5,6-dihydro-4H-thieno[2,3-c]pyrrol-2-yl)buta-1,3-diyn-1-yl)cyclopropyl)methyl dimethylglycinate], the values for the MIC in assay [1], in assay [2] and in assay [3] were 0.125 µg/mL (≈ 0.233 µM), 1 µg/mL (≈ 1.87 µM) and 0.25 µg/mL (≈ 0.467 µM), respectively.

The values are drawn from patent US20190031676A1, “ANTIBACTERIAL ANNULATED PYRROLIDIN-2-ONE DERIVATIVES” (priority 2015, published 2019).
